Reference: publication PMC6271893, “In Vitro Antioxidant and Cytotoxic Activity of Some Synthetic Riparin-Derived Compounds” (Molecules, 2014)
≈ marks a conversion by molar mass, not a printed value. Marks after values point to notes of the source that are not given here.

Experiments:
[1] = test system: larynx carcinoma cell line HEP-2; design: method as in PMID 23569415; conditions: cited from earlier work
[2] = Scavenging activity of nitric oxide (nitrite production induced by SNP, Griess reaction); conditions: for IC50 Nitrite: nitrite formation
Protocol: (§1) For the in vitro antioxidant tests the samples were emulsified in 0.05% Tween 80 dissolved in saline 0.9% (used as the vehicle) and tested at concentrations of 1, 5, 10, 25 and 100 µg/mL. The samples for the cytotoxicity tests were diluted in pure and sterile DMSO and tested at concentrations of 25 µg/mL.
Nitric oxide was generated from spontaneous decomposition of sodium nitroprusside in 20 mM phosphate buffer (pH 7.4). Once generated, NO interacts with oxygen to produce nitrite ions, which are measured by the Griess reaction. The reaction mixture (1 mL) containing 10 mM sodium nitroprusside (SNP) in phosphate buffer and the riparins at various concentrations of 1, 5, 10, 25 and 100 µg/mL were incubated at 37 °C for 1 h. A 0.5 mL aliquot was taken and homogenized with 0.5 mL Griess reagent. The absorbance of chromophore was measured at 540 nm. Percent inhibition of generated nitric oxide was measured by comparing the absorbance values of negative controls (only 10 mM sodium nitroprusside and vehicle) to assay preparations. Results were expressed as percentage of nitrite formed by SNP alone.

[3] = Hydroxyl radical scavenging activity (2-deoxyribose degradation, Fenton reaction); conditions: for IC50 OH radical: hydroxyl radical content
Protocol: as §1
The formation of OH radicals from Fenton reagents was quantified using the condensation product of the 2-deoxyribose oxidative degradation product, malonaldehyde, with 2-thiobarbituric acid (TBA). Briefly, typical reactions were started by the addition of Fe^2+ (FeSO4 6 mM final concentration) to solutions containing 5 mM 2-deoxyribose, 100 mM H2O2 and 20 mM phosphate buffer (pH 7.2). In order to determine the antioxidant activity of the riparins against the hydroxyl radical, individual tests were performed on each one of the six substances, in which different concentrations of the riparins were added to the system before Fe^2+ addition (Rip-A; Rip-B; Rip-C; Rip-D; Rip-E and Rip-F). Reactions were carried out for 15 min at room temperature and were quenched by the addition of phosphoric acid 4% (v/v), followed by TBA 1% (thiobarbituric acid, v/v in 50 μL NaOH). The solutions were boiled for 15 min to 95 °C and then cooled at room temperature. The absorbance was measured at 532 nm and the results were expressed as MDA equivalents formed by Fe^2+ and H2O2 [25].

[4] = Antioxidant potential against the formation of TBARS (AAPH-induced lipid peroxidation of egg yolk homogenate); conditions: for IC50 TBARS: TBARS production
Protocol: as §1
The TBARS assay was employed to quantify lipid peroxidation and an adapted TBARS method was used to measure the antioxidant capacity of the riparins (Rip-A, -B, -C, -D, -E and -F) using egg yolk homogenate as lipid rich substrate. Egg yolk was homogenized (1% w/v) in 20 mM phosphate buffer (pH 7.4), 1 mL of homogenate was sonicated and then homogenized with 0.1 mL of the samples at concentrations of 1, 5, 10, 25 and 100 µg/mL. Lipid peroxidation was induced by the addition of 0.1 mL of 2,2'-azobis(2-methylpropionamidine) dihydrochloride solution (AAPH; 0.12 M). Control was evaluated with only the vehicle. Reactions were carried out for 15 minutes at 37 °C. After cooling, samples (0.5 mL) were centrifuged with 0.5 mL of trichloroacetic acid (15%) at 1,200 ×g for 10 min. An aliquot of 0.5 mL from supernatant was mixed with 0.5 mL TBA (0.67%) and heated at 95 °C for 30 min. After cooling, sample absorbance was measured using a spectrophotometer at 532 nm. The results were expressed as percentage of TBARS formed by AAPH alone (induced control).

[5] = test system: HEP-2 (laryngeal carcinoma); assay: Cytotoxicity against tumor cell lines (MTT); format: cell-based; conditions: Homo sapiens, 72 h, 95% confidence interval in brackets, read-out: IC50 values and confidence intervals, HEP-2
Protocol: (§2) Cells were maintained at 37 °C with 5% CO2 in RPMI 1640 (Himedia^TM, Mumbai, India) or DMEM medium (Gibco^TM, Grand Island, NY, USA) supplemented with 2 mM glutamine, 100 U/mL penicillin, 100 μg/mL streptomycin. The antiproliferative activities of riparins were evaluated in the following human cancer cells lineage: HL-60 (pro-myelocytic leukemia), NCIH-292 (lung carcinoma), and HEP-2 (laryngeal carcinoma) obtained from the Rio de Janeiro Cell Bank (RJ-Brazil). For all experiments, 100 µL of tumor cells were plated in 96-well plates (6 × 10^4 cells/cm^2 for adherent cells or 9 × 10^4 cells/cm^2 for leukemia). Tested compounds (0.1–25 μg/mL) dissolved in 1% DMSO (100 µL) were added to each well and incubated for 72 h. Control groups received the same amount of DMSO. After 69 h of treatment, 25 μL of MTT (5 mg/mL) were added. Three hours later, the MTT formazan product was dissolved in 100 μL of DMSO, and absorbance was measured at 595 nm using a multiplate reader (Thermo Plate®, TP Reader, São Paulo, SP, Brasil).
(§3) The obtained data were evaluated by one-way analysis of variance (ANOVA) followed by a Student Newman Keuls post hoc test. The data concerning release percentage of cytoplasmatic enzyme lactate dehydrogenase (LDH) were reported by mean ± standard deviation and evaluated by one-way analysis of variance (ANOVA) followed by a Tukey post hoc test. In all cases differences were considered significant if p < 0.05, the means and respective standard errors were analyzed in the Graph Pad Prism version 5.0 for Windows software (GraphPad Software Incorporated, San Diego, CA, USA).

[6] = test system: HL-60 (pro-myelocytic leukemia); assay: Cytotoxicity against tumor cell lines (MTT); format: cell-based; conditions: Homo sapiens, 72 h, 95% confidence interval in brackets, read-out: IC50 values and confidence intervals, HL-60
Protocol: as §2, §3

[7] = test system: NCIH-292 (lung carcinoma); assay: Cytotoxicity against tumor cell lines (MTT); format: cell-based; conditions: Homo sapiens, NCI-H292, 72 h, 95% confidence interval in brackets, read-out: IC50 values and confidence intervals, NCIH-292
Protocol: as §2, §3

[8] = test system: murine peritoneal macrophages RAW 264.7; assay: Cytotoxicity assay on RAW 264.7 (LDH release); format: cell-based; conditions: 25 µg/mL, RAW 264.7
Protocol: Murine peritoneal macrophages of the cell line RAW 264.7 were obtained from the American Type Culture Collection (ATCC, Rockville, MD, USA), and cultured at 37 °C with CO2 at 5% in DMEM-F12 supplemented with 10% fetal bovine serum (FBS; Hyclone^TM, Logan, UT, USA) and gentamicin (50 μg/mL). RAW 264.7 cells (5 × 10^5 cells/mL) were cultured and incubated for 24 h with the riparins A, B, C, D, E and F at the final concentration of 25 µg/mL […]. The cytotoxicity assay was performed by LDH assay. The release of LDH (cytoplasmic lactate dehydrogenase enzyme) was determined using 50 μL of culture supernatant with 100 μL of LDH substrate plus and 5 μL ferric alum (5 mg/mL), at 37 °C for 3 min. Then, 100 μL of the NAD solution and phenazine methosulphate were added to the mixture, maintaining the temperature at 37 °C for 5 min (Labrax Commercial Kit, Clontech, Palo Alto, CA, USA). LDH is an oxidoreductase which catalyzes the interconversion of lactate and pyruvate and, for being a stable cytosolic enzyme, after damage to cell membrane it is released in the cellular environment and because of this LDH is an indirect indicator of cytotoxicity. LDH concentration was determined by colorimetry at 492 nm. The specific release of LDH was calculated as percentage of the controls (not treated cells as negative control and cells treated with 1%Triton X-100 as positive control).
as §3

[9] = test system: tumor cells lines (leukemia and lung and laryngeal carcinoma); assay: Cytotoxicity on tumor cell lines, summary statements over the lines (MTT); format: cell-based; conditions: Homo sapiens; for IC50: leukemia and lung and laryngeal carcinoma, read-out: IC50 values on neoplastic cells (range over cell lines); for inhibition at 25 µg/mL: tumor cells lines, cytotoxicity samples tested at 25 µg/mL, read-out: cell growth inhibition rates
Protocol: as §1, §2

Compound	Nitrite Production (% induced by SNP) ([2]; 1 μg/mL)	Nitrite Production (% induced by SNP) ([2]; 5 μg/mL)	Nitrite Production (% induced by SNP) ([2]; 10 μg/mL)	Nitrite Production (% induced by SNP) ([2]; 25 μg/mL)	Nitrite Production (% induced by SNP) ([2]; 100 μg/mL)	IC50 Nitrite [2] [µg/mL]	2-Deoxyribose degradation (%) ([3]; 1 μg/mL)	2-Deoxyribose degradation (%) ([3]; 5 μg/mL)	2-Deoxyribose degradation (%) ([3]; 10 μg/mL)	2-Deoxyribose degradation (%) ([3]; 25 μg/mL)	2-Deoxyribose degradation (%) ([3]; 100 μg/mL)	IC50 OH radical [3] [µg/mL]	TBARS levels (% AAPH) ([4]; 1 μg/mL)	TBARS levels (% AAPH) ([4]; 5 μg/mL)	TBARS levels (% AAPH) ([4]; 10 μg/mL)	TBARS levels (% AAPH) ([4]; 25 μg/mL)	TBARS levels (% AAPH) ([4]; 100 μg/mL)	IC50 TBARS [4] [µg/mL]	IC50 [5] [µg/mL]	IC50 [6] [µg/mL]	other results
CC[C@H]1C[C@@H]2CN3CCc4c([nH]c5ccccc45)[C@](C(=O)OC)(C2)[C@H]13 [Coronaridine, coronaridine]	–	–	–	–	–	–	–	–	–	–	–	–	–	–	–	–	–	–	–	–	IC50 on HEP-2 [1]: 54.47 µg/mL (≈ 161 µM)
O=C(NCCc1ccccc1)c1ccccc1O [Rip-C, 2-Hydroxy-N-phenethylbenzamide]	69.3 ± 1.07 ^a %	34.9 ± 0.23 ^a %	22.9 ± 1.31 ^a %	19.8 ± 0.83 ^a %	16.5 ± 1.44 ^a %	0.7240 (≈ 3 µM)	95.5 ± 1.30 ^a %	80.9 ± 1.29 ^a %	58.7 ± 1.37 ^a %	52.1 ± 0.13 ^a %	46.7 ± 0.35 ^a %	0.9516 (≈ 3.94 µM)	39.3 ± 0.60 ^a %	38.8 ± 1.07 ^a %	34.3 ± 0.92 ^a %	29.5 ± 1.91 ^a %	25.7 ± 2.62 ^a %	0.8971 (≈ 3.72 µM)	7.3 (≈ 30.3 µM)	3.3 (≈ 13.7 µM)	IC50 [7]: > 25 µg/mL; LDH % Release [8]: 87.35%; LDH % Release ([8]; listed as riparin C): greater than 80%; IC50 [9]: 1.9 to 11.4 µg/mL (≈ 7.87 to 47.2 µM); inhibition at 25 µg/mL [9]: > 70%; melting point: 95 °C
COc1ccc(CCNC(=O)c2c(O)cccc2O)cc1OC [Rip-F, N-[2-(3,4-Dimethoxyphenyl)ethyl]-2,6-dihydroxybenzamide]	74.9 ± 2.27 ^a %	35.3 ± 0.96 ^a %	21.5 ± 0.98 ^a %	19.9 ± 0.71 ^a %	17.3 ± 0.22 ^a %	0.5817 (≈ 1.83 µM)	83.3 ± 2.13 ^a %	61.5 ± 0.98 ^a %	57.6 ± 1.47 ^a %	55.1 ± 1.78 ^a %	50.9 ± 2.33 ^a %	1.016 (≈ 3.2 µM)	38.8 ± 0.99 ^a %	35.9 ± 0.41 ^a %	35.2 ± 0.44 ^a %	34.6 ± 0.49 ^a %	30.3 ± 0.47 ^a %	0.6231 (≈ 1.96 µM)	7.8 (≈ 24.6 µM)	11.4 (≈ 35.9 µM)	IC50 [7]: 10.3 µg/mL (≈ 32.5 µM); LDH % Release [8]: 91.01%; LDH % Release ([8]; listed as riparin F): greater than 80%; IC50 [9]: 1.9 to 11.4 µg/mL (≈ 5.99 to 35.9 µM); inhibition at 25 µg/mL [9]: > 70%; melting point: 167 °C
COc1ccc(CCNC(=O)c2ccccc2O)cc1OC [Rip-D, 2-Hydroxy-N-[2-(3,4-methoxyphenyl)ethyl]benzamide]	72.6 ± 1.81 ^a %	32.2 ± 1.45 ^a %	28.9 ± 1.74 ^a %	24.7 ± 1.77 ^a %	17.3 ± 2.38 ^a %	1.270 (≈ 4.21 µM)	93.5 ± 1.17 ^a %	67.9 ± 1.74 ^a %	56.9 ± 0.82 ^a %	51.9 ± 1.27 ^a %	47.3 ± 0.88 ^a %	1.358 (≈ 4.51 µM)	41.2 ± 0.96 ^a %	39.4 ± 0.71 ^a %	37.3 ± 0.68 ^a %	34.4 ± 0.76 ^a %	25.6 ± 0.66 ^a %	0.9958 (≈ 3.3 µM)	7.3 (≈ 24.2 µM)	9 (≈ 29.9 µM)	IC50 [7]: > 25 µg/mL; LDH % Release [8]: 83.12%; LDH % Release ([8]; listed as riparin D): greater than 80%; IC50 [9]: 1.9 to 11.4 µg/mL (≈ 6.31 to 37.8 µM); inhibition at 25 µg/mL [9]: > 70%; melting point: 96 °C
